Tests used:
Experiment in all cases: relative viability (nuclei count vs DMSO), 5 days (fraction); higher = more cells survive
IPA-3 + Navitoclax = compound: C1=CC=C2C(=C1)C=CC(=C2SSC3=C(C=CC4=CC=CC=C43)O)O [IPA-3] + CC1(C)CCC(c2ccc(Cl)cc2)=C(CN2CCN(c3ccc(C(=O)NS(=O)(=O)c4ccc(N[C@H](CCN5CCOCC5)CSc5ccccc5)c(S(=O)(=O)C(F)(F)F)c4)cc3)CC2)C1 [Navitoclax] (partner 0.5 µM)
Summary of the method: (§1)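 Each reported value is a median over duplicate plates. It expresses relative viability: treated-well nuclei count divided by vehicle-well nuclei count. Lung cancer cell lines in 1536-well plates were dosed by pin tool a day after seeding, alone with one drug or with a fixed anchor-drug dose plus five library-drug doses (not always all listed) in √10 steps, and nuclei were counted after 5 days.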

Doramapimod + Navitoclax = compound: Cc1ccc(-n2nc(C(C)(C)C)cc2NC(=O)Nc2ccc(OCCN3CCOCC3)c3ccccc23)cc1 [Doramapimod] + CC1(C)CCC(c2ccc(Cl)cc2)=C(CN2CCN(c3ccc(C(=O)NS(=O)(=O)c4ccc(N[C@H](CCN5CCOCC5)CSc5ccccc5)c(S(=O)(=O)C(F)(F)F)c4)cc3)CC2)C1 [Navitoclax] (partner 0.5 µM)
Summary of the method: as §1

RAF265 + Pemetrexed = compound: Cn1c(Nc2ccc(C(F)(F)F)cc2)nc2cc(Oc3ccnc(-c4ncc(C(F)(F)F)[nH]4)c3)ccc21 [RAF265] + Nc1nc2[nH]cc(CCc3ccc(C(=O)N[C@@H](CCC(=O)O)C(=O)O)cc3)c2c(=O)[nH]1 [Pemetrexed] (partner 0.2 µM)
Summary of the method: as §1

[1] = compound: Cc1ccc(-n2nc(C(C)(C)C)cc2NC(=O)Nc2ccc(OCCN3CCOCC3)c3ccccc23)cc1 [Doramapimod] + CC(=O)c1c(C)c2cnc(Nc3ccc(N4CCNCC4)cn3)nc2n(C2CCCC2)c1=O [Palbociclib] (partner 0.5 µM)
Summary of the method: as §1

Cell Line | relative viability (IPA-3 + Navitoclax; first compound 0.2 µM) | relative viability (IPA-3 + Navitoclax; first compound 0.6325 µM) | relative viability (IPA-3 + Navitoclax; first compound 2 µM) | relative viability (IPA-3 + Navitoclax; first compound 6.325 µM) | relative viability (IPA-3 + Navitoclax; first compound 20 µM) | relative viability (Doramapimod + Navitoclax; first compound 0.02 µM) | relative viability (Doramapimod + Navitoclax; first compound 0.06325 µM) | relative viability (Doramapimod + Navitoclax; first compound 0.2 µM) | relative viability (Doramapimod + Navitoclax; first compound 0.6325 µM) | relative viability (Doramapimod + Navitoclax; first compound 2 µM) | relative viability (RAF265 + Pemetrexed; first compound 0.01 µM) | relative viability (RAF265 + Pemetrexed; first compound 0.03162 µM) | relative viability (RAF265 + Pemetrexed; first compound 0.1 µM) | relative viability (RAF265 + Pemetrexed; first compound 0.3162 µM) | relative viability (RAF265 + Pemetrexed; first compound 1 µM) | relative viability ([1]; first compound 0.02 µM) | relative viability ([1]; first compound 0.06325 µM) | relative viability ([1]; first compound 0.2 µM) | relative viability ([1]; first compound 0.6325 µM) | relative viability ([1]; first compound 2 µM)
Calu-6 | 0.794 | 0.839 | 0.833 | 0.753 | 0.536 | 0.885 | 0.894 | 0.899 | 0.92 | 0.846 | – | – | – | – | – | – | – | – | – | –
SW 900 | – | – | – | – | – | – | – | – | – | – | 0.486 | 0.512 | 0.512 | 0.488 | 0.254 | 0.57 | 0.537 | 0.558 | 0.584 | 0.531
NCI-H3122 | 0.994 | 0.998 | 1.01 | 1.12 | 1.02 | 1.03 | 0.992 | 1 | 1.09 | 0.914 | 0.197 | 0.21 | 0.198 | 0.209 | 0.195 | 0.18 | 0.176 | 0.191 | 0.2 | 0.213
NCI-H2347 | 0.962 | 0.792 | 0.633 | 0.88 | 0.988 | 0.947 | 0.726 | 0.793 | 0.761 | 0.821 | 0.392 | 0.371 | 0.406 | 0.446 | 0.351 | 0.474 | 0.466 | 0.483 | 0.383 | 0.513
HCC-44 | 1.11 | 0.969 | 0.977 | 1 | 0.942 | 1 | 0.986 | 0.986 | 1.14 | 0.979 | 0.647 | 0.597 | 0.655 | 0.622 | 0.653 | 0.96 | 1 | 0.97 | 0.904 | 0.891
HCC-78 | 0.915 | 0.75 | 0.706 | 0.764 | 1.01 | 0.834 | 0.81 | 0.81 | 0.874 | 0.777 | 0.906 | 0.844 | 0.884 | 0.881 | 0.898 | 0.469 | 0.511 | 0.505 | 0.509 | 0.568
COR-L23 | 1.11 | 0.975 | 1.07 | 0.983 | 0.926 | 1.1 | 0.989 | 1 | 1.07 | 1.02 | 0.188 | 0.206 | 0.202 | 0.182 | 0.184 | 0.29 | 0.317 | 0.298 | 0.338 | 0.283
NCI-H1993 | 0.973 | 0.911 | 0.896 | 0.894 | 0.838 | 0.952 | 0.749 | 0.966 | 0.918 | 0.834 | 0.548 | 0.605 | 0.508 | 0.51 | 0.581 | 0.641 | 0.58 | 0.621 | 0.596 | 0.504
NCI-H2405 | 0.993 | 0.989 | 0.929 | 0.892 | 0.984 | 0.901 | 0.831 | 0.812 | 1.33 | 0.804 | 1.14 | 0.922 | 0.91 | 0.662 | 0.516 | 0.531 | 0.487 | 0.505 | 0.575 | 0.495
NCI-H1648 | – | – | – | – | – | – | – | – | – | – | 0.758 | 0.66 | 0.771 | 1.02 | 0.65 | 0.262 | 0.293 | 0.248 | 0.249 | 0.234
NCI-H358 | – | – | – | – | – | – | – | – | – | – | 0.159 | 0.165 | 0.151 | 0.149 | 0.147 | 0.153 | 0.137 | 0.138 | 0.195 | 0.133
NCI-H727 | 0.447 | 0.377 | 0.442 | 0.614 | 0.556 | 0.467 | 0.337 | 0.501 | 0.481 | 0.382 | – | – | – | – | – | 0.603 | 0.639 | 0.656 | 0.705 | 0.692
ABC-1 | – | – | – | – | – | – | – | – | – | – | – | – | – | – | – | 0.642 | 0.732 | 0.683 | 0.845 | 0.817
LCLC-103H | – | – | – | – | – | – | – | – | – | – | 0.496 | 0.423 | 0.476 | 0.459 | 0.429 | 0.43 | 0.396 | 0.432 | 0.42 | 0.439
NCI-H596 | 0.969 | 1.08 | 0.985 | 0.894 | 1.16 | 0.927 | 0.809 | 0.933 | 1.01 | 0.876 | 0.565 | 0.504 | 0.474 | 0.538 | 0.448 | – | – | – | – | –
NCI-H1563 | – | – | – | – | – | – | – | – | – | – | 0.943 | 0.886 | 0.77 | 0.779 | 0.699 | – | – | – | – | –
NCI-H2342 | – | – | – | – | – | – | – | – | – | – | 0.809 | 0.818 | 0.782 | 0.803 | 0.788 | 0.523 | 0.585 | 0.632 | 0.524 | 0.535
NCI-H522 | – | – | – | – | – | – | – | – | – | – | 0.922 | 1.15 | 1.09 | 1.13 | 1 | 1.02 | 1.04 | 1.03 | 0.954 | 0.817
NCI-H650 | – | – | – | – | – | – | – | – | – | – | 0.96 | 0.76 | 0.734 | 0.573 | 0.505 | 0.368 | 0.341 | 0.395 | 0.343 | 0.345
EBC-1 | 0.417 | 0.392 | 0.387 | 0.333 | 0.309 | 0.428 | 0.335 | 0.332 | 0.417 | 0.372 | – | – | – | – | – | – | – | – | – | –
IA-LM | 0.793 | 0.683 | 0.765 | 0.601 | 0.392 | 0.676 | 0.567 | 0.804 | 0.807 | 0.577 | – | – | – | – | – | – | – | – | – | –
NCI-H1703 | 1.71 | 0.991 | 1.05 | 1.13 | 0.765 | 0.957 | 0.944 | 1.16 | 1.54 | 0.896 | – | – | – | – | – | – | – | – | – | –
NCI-H661 | – | – | – | – | – | – | – | – | – | – | 0.941 | 0.873 | 0.835 | 0.701 | 0.615 | 0.447 | 0.407 | 0.404 | 0.427 | 0.39
